These results are taken from PubChem BioAssay AID463203 (Broad Institute, 2010).

Molecules are shown by their SMILES. Activity calls are given as the source filed them.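 Rule for the calls: active = more than half of replicate measurements showing over 20% loss of kinase signal relative to plate controls; inconclusive = some but at most half of replicates over 20% loss; inactive = no replicate over 20% signal loss.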

This test deals with Glycogen synthase kinase-3 alpha (Homo sapiens) (UniProt P49840). In words: concentration-response blocking of human GSK3A – biochemical, luminescence, cell-free homogeneous, retest, dose response (AID 463203). Conditions: GSK-3 alpha enzyme, ADP-Glo luminescence, 60 min.
Glycogen synthase kinase-3 alpha (Homo sapiens), sequence (P49840 whole entry, looked up): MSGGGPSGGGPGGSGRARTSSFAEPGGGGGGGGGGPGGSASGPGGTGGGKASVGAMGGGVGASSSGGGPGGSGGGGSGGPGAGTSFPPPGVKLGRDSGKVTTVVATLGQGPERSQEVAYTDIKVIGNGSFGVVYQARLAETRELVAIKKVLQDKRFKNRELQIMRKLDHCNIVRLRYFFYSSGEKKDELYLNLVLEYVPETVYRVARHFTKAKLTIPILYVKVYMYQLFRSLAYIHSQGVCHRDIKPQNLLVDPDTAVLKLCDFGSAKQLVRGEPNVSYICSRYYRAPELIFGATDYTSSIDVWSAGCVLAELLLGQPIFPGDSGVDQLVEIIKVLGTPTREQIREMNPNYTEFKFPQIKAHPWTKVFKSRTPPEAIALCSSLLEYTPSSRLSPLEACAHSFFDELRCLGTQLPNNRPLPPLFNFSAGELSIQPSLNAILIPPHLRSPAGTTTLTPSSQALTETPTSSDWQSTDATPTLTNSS

As to `CC(C)(C)OC(=O)N1CCC(NC(=O)c2nc[nH]c2C(=O)NC2CCN(C(=O)OC(C)(C)C)CC2)CC1`, the AC50 is > 30 µM (inactive).
The same measure for `Cc1ccc2c(c1)COc1c3ccc(C(=O)N4CCOCC4)cc3nn1-2`: > 30 µM (inactive); for `Cc1csc(NC(=O)C2CC(=O)N(c3ccc4c(c3)OCCO4)C2)n1` (stereo unspecified): > 30 µM (inactive); for `Cc1ccc(S(=O)(=O)Nc2cccc3ncccc23)cc1`: > 30 µM (inactive).
Next, `CCCCOC(=O)c1ccc(N/C(=N\S(=O)(=O)c2ccccc2)c2ccccc2)cc1`: > 30 µM (inactive).
Next, `Nc1nc2n(n1)C(c1ccc(F)cc1)CC(c1ccc(F)cc1)N2` (stereo unspecified): > 30 µM (inactive); `O=C1OCCC1Sc1nnc(-c2ccc3c(c2)OCO3)o1` (stereo unspecified): 25.9 µM.
Regarding `CC(=O)c1cc(-c2ccc(F)cc2)n(CCC(=O)Nc2cccc(C)n2)c1C`, the AC50 was > 30 µM (inactive).
Next, `O=[N+]([O-])c1ccc(-c2nnc(-c3ccccc3)c(NCCCO)n2)cc1`: > 30 µM (inactive); `Cc1ccc(C(=O)Nc2cccc(-c3cnc4ccccc4n3)c2)cc1`: > 30 µM (inactive).
Next, `CCSc1nc2sc3c(c2c(=O)n1-c1ccccc1C)CCN(C)C3`: > 30 µM (inactive).
The same measure for `COc1cccc(CNc2nc(C(F)(F)F)nc3ccccc23)c1`: > 30 µM (inactive).
Consider `CS(=O)(=O)Nc1ccc(-c2cc(/C=C3\SC(N)=NC3=O)c[nH]c2=O)cc1`, for which the AC50 is 7.53 µM.
The same measure for `CC(=O)Nc1ccccc1C`: > 30 µM (inactive).
Next, `O=C(O)c1ccc(N=c2oc3cc(O)ccc3cc2C(=O)NCc2ccccc2)cc1`: 5.83 µM.
Regarding `O=C1Nc2ccccc2C1(O)c1ccccc1O` (stereo unspecified), the AC50 is > 30 µM (inactive).
Regarding `COc1ccc(OC)c(N=c2oc3c(OC)cccc3cc2C(=O)NCc2ccco2)c1`, the AC50 was > 30 µM (inactive).
With `c1csc(CNc2ncnc3sccc23)c1`, the AC50 was > 30 µM (inactive).
Turning to `O=C(NC1CCCC1)c1ccc(Cn2c(=O)[nH]c3ccsc3c2=O)cc1`, the AC50 is > 30 µM (inactive).
Regarding `CC(=O)Nc1cccc(-c2csc(Nc3ccc(C)cn3)n2)c1`, the AC50 is > 30 µM (inactive).
Next, `O=C(COc1ccccc1F)NC12CC3CC(CC(C3)C1)C2`: > 30 µM (inactive); `CCN1CCN(CC(=O)Nc2nc3ccc(OC)cc3s2)CC1`: > 30 µM (inactive).
The same measure for `O=c1[nH]c(CN2CCN(CCO)CC2)nc2ccccc12`: > 30 µM (inactive); for `Cc1ccc(C)c(/C=N/Nc2ccccn2)c1`: > 30 µM (inactive).
The same measure for `O=C(O)C1CCCC[C@H]1C(=O)Nc1ncc([N+](=O)[O-])s1` (stereo partly specified): > 30 µM (inactive); for `Nc1nonc1-n1nnc(C(=O)N/N=C/c2cccs2)c1CSc1ccccc1`: > 30 µM (inactive).
With `CCCc1c(C(=O)N/N=C/C(C)=C/c2ccco2)nnn1-c1nonc1N`, the AC50 is > 30 µM (inactive).
Consider `CCc1nnc(NS(=O)(=O)c2ccc(N/C=C(\C=O)c3nc4cc(Cl)ccc4o3)cc2)s1`, for which the AC50 is 9.24 µM.
The same measure for `O=C(Nc1ccccc1F)Nc1ccccc1OC(F)F`: > 30 µM (inactive); for `COc1ccc(-c2cn3cccnc3n2)cc1NC(=O)C1CCCC1`: > 30 µM (inactive); for `COc1ccc(/C=N/NC(=O)c2nnn(-c3nonc3N)c2-c2cccs2)c(OC)c1`: 1.04 µM.
`O=C1NC(=Nc2ccccc2)S/C1=C/c1cccs1`: the AC50 is > 30 µM (inactive).
The same measure for `O=[N+]([O-])c1ccc(NCCCN2CCOCC2)c([N+](=O)[O-])c1`: > 30 µM (inactive).
Next, `Cc1nc2sc(C(N)=O)c(N)c2c2c1CCCC2`: 28 µM; `O=C1CCCC2=C1C(c1ccc(O)cc1)c1c(ccc3ccccc13)N2` (stereo unspecified): > 30 µM (inactive).
Next, `Cc1cc(/C=N\NC(=O)c2cccs2)c(C)n1-c1ccc2ncccc2c1`: > 30 µM (inactive).
